Laboratory results: PMC11393339, “Structure and mechanism of a phosphotransferase system glucose transporter” (Nature Communications, 2024)

Key:
[1] = target: T1, IICB^Glc (Escherichia coli, UniProt P69786); assay: nanoDSF thermal shift (Tycho NT.[…]); type: binding; details: 10 mM ligand, 4 µM protein, 20 mM HEPES-NaOH pH 8.0, 150 mM NaCl, 5 mM β-ME, 0.02% DDM
T1 construct: gene ptsG; full-length wild type with decahistidine tag; overexpressed in E. coli BW25113 delta-arcB delta-ptsG; homodimer; purified in DDM (nanoDSF) or in MSP1E3D1/POPC nanodiscs (cryo-EM, IIB domain not resolved)

[2] = target: T1, IICB^Glc; assay: nanoDSF thermal shift (Tycho NT.[…]); type: binding; details: 10 mM ligand, 4 µM protein, 20 mM HEPES-NaOH pH 8.0, 150 mM NaCl, 5 mM β-ME, 0.02% DDM; remark: listed apart in the source

T1 sequence (P69786 whole entry, the tested form may be a part): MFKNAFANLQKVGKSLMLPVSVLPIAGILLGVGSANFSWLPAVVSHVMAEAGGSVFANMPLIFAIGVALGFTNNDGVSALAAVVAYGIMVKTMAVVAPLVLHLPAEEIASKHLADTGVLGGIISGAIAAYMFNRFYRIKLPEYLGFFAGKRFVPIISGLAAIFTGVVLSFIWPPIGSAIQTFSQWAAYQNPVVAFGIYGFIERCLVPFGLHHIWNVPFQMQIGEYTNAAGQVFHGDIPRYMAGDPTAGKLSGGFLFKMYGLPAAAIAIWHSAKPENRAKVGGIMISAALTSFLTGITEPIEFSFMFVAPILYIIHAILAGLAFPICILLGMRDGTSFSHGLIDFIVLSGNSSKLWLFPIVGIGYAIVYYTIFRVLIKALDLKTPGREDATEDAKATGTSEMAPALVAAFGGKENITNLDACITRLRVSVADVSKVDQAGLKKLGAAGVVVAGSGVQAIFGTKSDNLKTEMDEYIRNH

SMILES: OC[C@H]1OC(O)[C@H](O)[C@@H](O)[C@@H]1O (stereo partly drawn) [D-glucose]
- ΔTi [1]: ~ almost 10 °C

SMILES: COC1O[C@H](CO)[C@@H](O)[C@H](O)[C@H]1O (stereo partly shown) [1-O-methyl-glucose]
- ΔTi [2]: 1-deoxy-glucose and 1-O-methyl-glucose bound best

SMILES: OC[C@H]1OC[C@H](O)[C@@H](O)[C@@H]1O [1-deoxy-glucose]
- ΔTi [2]: 1-deoxy-glucose and 1-O-methyl-glucose bound best

SMILES: OC[C@H]1O[C@H](O[C@H]2[C@H](O)[C@@H](O)C(O)O[C@@H]2CO)[C@H](O)[C@@H](O)[C@@H]1O (stereo partly drawn) [D-maltose]
- ΔTi [2]: induced a slight stabilization of IICB^Glc
